Values joined by “and” are separate entries in the source; they are usually repeats but may differ in a detail not shown here. Identical values can stand only once.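 Where inhibition never reached the appropriate level, the endpoint shown equals the highest concentration tested. Otherwise, values were interpolated linearly from a five-concentration, 48-hour dose response in 96-well plates. GI50 is the concentration that inhibits growth by half. At the TGI there is no net growth.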

What all share (assay): NCI-60 cell line screen, 48 h
Assay [1] relates to SW-620 colon.
For assay [2], the system named is PC-3 prostate.
Assay [3] relates to MOLT-4 leukemia.
Assay [4] relates to A498 renal.
Assay [5] deals with T-47D breast.
For assay [6], the system named is SF-295 CNS.
Assay [7] deals with A549 NSCLC.
Assay [8] deals with MALME-3M melanoma.
The subject of assay [9] is KM12 colon.
The subject of assay [10] is M14 melanoma.

`CC(=O)ON=C1C=CC(=C(C#N)c2ccccc2)C=C1`: the GI50 is 452 nM in [1]; 476 nM in assay [2]; 2860 nM in assay [3]; 12600 nM in assay [4]; 1050 nM in assay [5]; 1830 nM in [6]. Also, the GI50 in assay [7] was 3090 nM; in assay [8] it was 4010 nM; in [9], 357 nM; in [10], 1890 nM. The TGI in assay [1] is 7760 nM; in assay [2] it was 12300 nM; in assay [3], greater than 100000 nM; in assay [4], 47000 nM; in assay [5] it was 11300 nM; in assay [6] it was 12700 nM. Further, the TGI in assay [7] was greater than 36000 nM; in assay [8] it was 20100 nM; in assay [9], 1710 nM; in assay [10] it was 9900 nM.

With `CC[C@@]1(O)C(=O)OCc2c1cc1n(c2=O)Cc2c-1nc1cc(F)c(C)c3c1c2[C@@H](NC(=O)CO)CC3`, the GI50 was less than 10 nM in [1]; 98.5 nM in assay [2]; less than 10 nM in assay [3]; less than 11 nM in assay [4]; less than 10 nM in [5]; less than 10 nM in assay [6]. Moreover, the GI50 in assay [7] is 50.3 nM; in assay [8] it was 30.4 nM; in assay [9], 149 nM; in assay [10], less than 10 nM. In addition, the TGI was greater than 44200 nM in assay [1]; greater than 100000 nM in assay [2]; greater than 100000 nM in [3]; 51.6 nM in assay [4]; 338 nM in [6]; 7510 nM in [7]. In addition, the TGI in assay [8] is 1080 nM; in assay [9], greater than 100000 nM; in [10], 95.7 nM.

Regarding `C[C@]12CC[C@H]3[C@@H](CC[C@]4(O)C[C@@H](O[C@@H]5O[C@H](CO)[C@@H](O[C@@H]6OC[C@@H](O)[C@H](O)[C@H]6O)[C@H](O)[C@H]5O)CC[C@]34C=O)[C@@]1(O)CC[C@@H]2C1=CC(=O)OC1`, the GI50 in assay [1] was 1350 nM; in assay [2], 780 nM; in [3], 302 nM; in assay [4], 1230 nM; in assay [5] it was 1550 nM; in assay [6], 1700 nM. Besides, the GI50 is 581 nM in [7], 1490 nM in assay [8], 1980 nM in [9] and 2380 nM in assay [10]. Further, the TGI in assay [1] was 4670 nM; in assay [2], 3570 nM; in assay [3], 1820 nM; in assay [4], 4500 nM; in assay [5], 7770 nM; in [6], 6270 nM. In addition, the TGI in assay [7] worked out at 1280 nM; in assay [8] it was 3450 nM; in [9], 8230 nM; in [10], 10500 nM.

For `CC1[C@@H]2CC=C3[C@H]4CCC5Cc6nc7c(nc6C[C@@]5(C)C4CC(=O)[C@]32CO[C@]12OC(C)(C)CC2O)CC1CC[C@@H]2C3=C[C@H]4O[C@@]5(O[C@@](C)(CO)C[C@@H]5O)C(C)[C@@]4(O)[C@]3(C)[C@@H](O)CC2[C@]1(C)C7` (some centres not stated), the GI50 is 0.982 nM and 2.04 nM in [1]; 0.287 nM in assay [2]; 0.203 nM and 0.365 nM in assay [3]; 0.721 nM in [4]; 246 nM in assay [5]; 0.124 nM and < 0.365 nM in assay [6]. Besides, the GI50 in assay [7] was 0.51 nM and 1.33 nM; in [8], 8.07 nM and 5.77 nM; in assay [9] it was 1.88 nM and 0.966 nM; in assay [10], 1.31 nM. Besides, the TGI was 26.2 nM and 52.6 nM in [1]; 27.4 nM in [2]; 1.56 nM and 1.57 nM in assay [3]; 18.7 nM and 12.4 nM in assay [4]; 0.434 nM and < 0.365 nM in assay [6]; 164 nM and 470 nM in assay [7]. The TGI in [8] was 145 nM and 64.8 nM; in assay [9] it was 78.8 nM and 84.8 nM; in assay [10] it was 12.4 nM.

With `Cc1cnc(-c2ccc(-c3ccc(NC(=O)Nc4c(F)cc(F)cc4F)cc3F)c3c2C(=O)NC3)[nH]1`, the GI50 in assay [1] is 430 nM; in assay [2], 1410 nM and 2570 nM; in assay [3], 68.6 nM and 212 nM; in assay [4], 6480 nM and 2130 nM; in [5], 2980 nM and 12600 nM; in assay [7], 1290 nM and 1110 nM. For the same molecule, the GI50 in assay [8] is 124 nM and 106 nM; in assay [9] it was less than 10 nM; in assay [10], 39.2 nM and 211 nM. In addition, the TGI in assay [1] was 2190 nM; in [2], 3820 nM and 30100 nM; in assay [3], 13100 nM and 18100 nM; in assay [4] it was 24300 nM and 14900 nM; in assay [5], 20500 nM and 47500 nM; in [6], 18800 nM and 18400 nM. Besides, the TGI in assay [7] is 8230 nM and 10800 nM; in [8] it was 2370 nM and 2800 nM; in assay [9], 2580 nM and 6870 nM; in [10] it was 1990 nM and 17100 nM.

`Nc1cc(N)c2nc(NCCc3ccc(Cl)c(Cl)c3)cnc2c1`: the GI50 in assay [1] is 16200 nM; in assay [2], 9320 nM; in [3], 2500 nM; in assay [4], 20300 nM; in assay [5], 2830 nM; in assay [6], 15300 nM. Moreover, the GI50 in assay [7] is 17700 nM; in [8], 3440 nM; in [9], 13000 nM; in assay [10], 18000 nM. Further, the TGI is 32000 nM in assay [1]; 21300 nM in assay [2]; 8220 nM in assay [3]; 34500 nM in [4]; 8650 nM in assay [5]; 29600 nM in assay [6]. In addition, the TGI in assay [7] was 34200 nM; in assay [8], 11100 nM; in [9], 30400 nM; in [10], 38500 nM.
